US12583858B2 (Genentech, Inc., priority 2015, dated 2026)
Read-outs that look alike come from different tables or passages of the source.

What was measured:
TDO2 = molecular target: T1, TDO2 (Homo sapiens, UniProt P48775); experiment: TDO2 cell assay (NFK GreenScreen, SW48 cells); format: cell-based; settings: SW48 cells (high TDO expressing)
T1 construct: decreased levels of NFK in SW48 cells (high TDO expressing cells)
Protocol: The NFK GreenScreen™ (NTRC, Netherlands) uses a specific chemical probe that binds to N-Formylkynurenine (NFK), a product of tryptophan catabolism facilitated by IDO or TDO and causes fluorescence at 510 nm when excited at 410 nm. […] The assay is multiplexed with Cell Titer-Glo® (Promega) to determine if compounds are cytotoxic. […] Cells are counted on a Vi-Cell (Beckman Coulter). SW48 cells are diluted to 1×10^6 cells/ml in assay media. A172 cells are diluted to 0.24×10^6 cells/ml in assay media. […] 5 ul of assay media containing 1.2 mM tryptophan are added to the SW48 cells for a final concentration of 200 uM tryptophan in each well. 5 ul of assay media containing 600 uM tryptophan and 600 ng/ml IFNγ are added to the A172 cells for a final concentration of 100 uM tryptophan and 100 ng/ml IFNγ in each well. The final DMSO concentration is 0.5%. Cell plates are placed at room temperature in a closed TC hood with the blower off to allow cells to settle for approximately 30 min. Plates are then moved to an incubator set at 37° C., 5% CO2 for 24 hours. After the 24 hour compound incubation, 8 ul of NFK green reagent is added to each well with a Multidrop™ Combi dispenser (Thermo Scientific). Plates are sealed and incubated at 37° C., 5% CO2 for 5 hours, then read on a PHERAstar® (BMG labtech). Data are analyzed by normalizing to DMSO and high inhibitor controls. After the plates have been read for NFK green, 25 ul of Cell Titer-Glo® (Promega) are added to each well, incubated for 15 minutes at room temperature, and read on the Envision (Perkin Elmer). Cell Titer-Glo data are analyzed by normalizing to the DMSO controls. Four-parameter curve fitting is used and EC50 data are reported.

IDO = molecular target: T2, IDO (Homo sapiens, UniProt P14902); experiment: IDO cell assay (NFK GreenScreen, A172+IFNg cells); format: cell-based; settings: A172 cells + 100 ng/ml IFNγ (high IDO expressing), 100 uM tryptophan, 24 hours; TDO selectivity table; read-out: IDO cell Fluor EC50
T2 construct: selective against A172+IFNg cells (high IDO expressing cells)
Protocol: Cells are counted on a Vi-Cell (Beckman Coulter). […] The final DMSO concentration is 0.5%.
Compounds of the invention were tested for selectivity against TDO over IDO. The cell based assay described above was used to test for TDO and IDO activity.

[1] = 200 uM tryptophan, 24 hours, Table 3, read-out: TDO2 Cell Fluor EC50
[2] = TDO selectivity table, read-out: TDO2 cell Fluor EC50

T1 sequence (P48775 whole entry): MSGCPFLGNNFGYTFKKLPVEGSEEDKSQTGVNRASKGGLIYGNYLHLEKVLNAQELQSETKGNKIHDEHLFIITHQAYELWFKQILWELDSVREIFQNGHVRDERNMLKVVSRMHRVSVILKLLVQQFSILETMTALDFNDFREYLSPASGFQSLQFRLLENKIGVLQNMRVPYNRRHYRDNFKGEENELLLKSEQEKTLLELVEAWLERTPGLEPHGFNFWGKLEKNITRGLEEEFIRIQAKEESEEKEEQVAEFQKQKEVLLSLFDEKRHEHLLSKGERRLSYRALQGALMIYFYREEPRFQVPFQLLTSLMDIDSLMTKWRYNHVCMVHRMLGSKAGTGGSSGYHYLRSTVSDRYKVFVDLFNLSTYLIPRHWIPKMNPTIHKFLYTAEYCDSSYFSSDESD
T2 sequence (P14902 whole entry): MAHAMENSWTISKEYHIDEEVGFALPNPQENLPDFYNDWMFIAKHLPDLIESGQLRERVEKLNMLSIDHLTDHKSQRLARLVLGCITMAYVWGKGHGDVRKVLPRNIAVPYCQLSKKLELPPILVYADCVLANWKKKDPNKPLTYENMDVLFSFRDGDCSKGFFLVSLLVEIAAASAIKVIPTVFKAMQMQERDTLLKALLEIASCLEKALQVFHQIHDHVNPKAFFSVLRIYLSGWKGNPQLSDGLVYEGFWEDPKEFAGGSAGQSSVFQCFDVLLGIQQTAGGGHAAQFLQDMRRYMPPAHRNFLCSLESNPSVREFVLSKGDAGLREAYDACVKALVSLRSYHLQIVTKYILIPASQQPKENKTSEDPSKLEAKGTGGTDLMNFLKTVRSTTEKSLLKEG

OC1c2cnccc2CCC1C1c2ccccc2-c2cncn21 (single isomer, unassigned) [Example 04e]
EC50 (TDO2; [1]): 49 nM
EC50 (TDO2; [2]): 49 nM
EC50 (IDO): 1200 nM

Cn1ncc2c1CCC(C1c3ccccc3-c3cncn31)C2O (single isomer, unassigned) [Example 93a]
EC50 (TDO2; [1]): 380 nM
EC50 (TDO2; [2]): 380 nM
EC50 (IDO): 13000 nM

OC1c2cncnc2CCC1C1c2ccccc2-c2cncn21 (single isomer, unassigned) [Example 94c]
EC50 (TDO2; [1]): 110 nM
EC50 (TDO2; [2]): 110 nM
EC50 (IDO): 8400 nM

NS(=O)(=O)c1ccc2c(c1)CCC(C1c3ccccc3-c3cncn31)C2O (single isomer, unassigned) [Example 100g]
EC50 (TDO2; [1]): 57 nM
EC50 (TDO2; [2]): 57 nM
EC50 (IDO): 1700 nM

NS(=O)(=O)N1CCC(O)C(C2c3ccccc3-c3cncn32)CC1 (single isomer, unassigned) [Example 101d, 4-hydroxy-5-(5H-imidazo[5,1-a]isoindol-5-yl)azepane-1-sulfonamide]
EC50 (TDO2; [1]): 770 nM
EC50 (TDO2; [2]): 770 nM
EC50 (IDO): 21000 nM

OC1C(C2c3ccc(F)cc3-c3cncn32)CC12CCOCC2 (single isomer, unassigned) [Example 109c]
EC50 (TDO2; [1]): 230 nM
EC50 (TDO2; [2]): 230 nM
EC50 (IDO): > 25000 nM

OC1c2cnncc2CCC1C1c2ccccc2-c2cncn21 (single isomer, unassigned) [Example 112b]
EC50 (TDO2; [1]): 240 nM
EC50 (TDO2; [2]): 240 nM
EC50 (IDO): 15000 nM

NC(=O)c1ccc2c(c1)C(O)C(C1c3ccccc3-c3cncn31)CC2 (single isomer, unassigned) [Example 122a]
EC50 (TDO2; [1]): 35 nM
EC50 (TDO2; [2]): 35 nM
EC50 (IDO): 2600 nM

Cn1cc2c(n1)CCC(C1c3ccccc3-c3cncn31)C2O (single isomer, unassigned) [Example 130d]
EC50 (TDO2; [1]): 87 nM
EC50 (TDO2; [2]): 87 nM
EC50 (IDO): 1800 nM

NC(=O)c1nc2c(s1)CCC(C1c3ccccc3-c3cncn31)C2O (single isomer, unassigned) [Example 149b]
EC50 (TDO2; [1]): 55 nM
EC50 (TDO2; [2]): 55 nM
EC50 (IDO): 2100 nM

OC1c2[nH]ncc2CCC1C1c2ccccc2-c2cncn21 (single isomer, unassigned) [Example 157g]
EC50 (TDO2; [1]): 42 nM
EC50 (TDO2; [2]): 42 nM
EC50 (IDO): 8000 nM

O[C@@H]1CC[C@H]1[C@H]1c2ccccc2-c2cncn21 [Example 01d, (1R,2S)-2-((S)-5H-imidazo[5,1-a]isoindol-5-yl)cyclobutan-1-ol]
EC50 (TDO2; [1]): 37 nM
EC50 (TDO2; [2]): 37 nM
EC50 (IDO): 2400 nM

N#Cc1ccc2c(c1)[C@H](O)[C@@H]([C@@H]1c3ccccc3-c3cncn31)CC2 [Example 113a, (7R,8R)-8-hydroxy-7-((R)-5H-imidazo[5,1-a]isoindol-5-yl)-5,6,7,8-tetrahydronaphthalene-2-carbonitrile]
EC50 (TDO2; [1]): 1000 nM

CCS(=O)(=O)N1CCC2(CC1)C[C@@H]([C@@H]1c3ccccc3-c3cncn31)[C@@H]2O [Example 114b, (1S,2S)-7-(ethylsulfonyl)-2-((R)-5H-imidazo[5,1-a]isoindol-5-yl)-7-azaspiro[3.5]nonan-1-ol]
EC50 (TDO2; [1]): > 25000 nM

O[C@@H]1COCC[C@H]1[C@H]1c2c(F)cccc2-c2cncn21 [Example 120a, (3S,4S)-4-((S)-6-fluoro-5H-imidazo[5,1-a]isoindol-5-yl)tetrahydro-2H-pyran-3-ol]
EC50 (TDO2; [1]): > 25000 nM

O[C@H]1COCC[C@@H]1[C@@H]1c2c(F)cccc2-c2cncn21 [Example 120b, (3R,4R)-4-((R)-6-fluoro-5H-imidazo[5,1-a]isoindol-5-yl)tetrahydro-2H-pyran-3-ol]
EC50 (TDO2; [1]): > 25000 nM

O[C@H]1c2ncsc2CC[C@@H]1[C@@H]1c2ccccc2-c2cncn21 [Example 125a, (4R,5R)-5-((R)-5H-imidazo[5,1-a]isoindol-5-yl)-4,5,6,7-tetrahydrobenzo[d]thiazol-4-ol]
EC50 (TDO2; [1]): > 25000 nM

O[C@@H]1c2ncsc2CC[C@H]1[C@H]1c2ccccc2-c2cncn21 [Example 125b, (4S,5S)-5-((S)-5H-imidazo[5,1-a]isoindol-5-yl)-4,5,6,7-tetrahydrobenzo[d]thiazol-4-ol]
EC50 (TDO2; [1]): 67 nM

CS(=O)(=O)N1CCC[C@](O)([C@@H]2c3ccccc3-c3cncn32)C1 [Example 134a, (R)-3-((S)-5H-imidazo[5,1-a]isoindol-5-yl)-1-(methylsulfonyl)piperidin-3-ol]
EC50 (TDO2; [1]): 1100 nM

CC(C)[C@@H](O)[C@H]1c2ccc(F)cc2-c2cncn21 [Example 135b, (R)-1-((R)-8-fluoro-5H-imidazo[5,1-a]isoindol-5-yl)-2-methylpropan-1-ol]
EC50 (TDO2; [1]): > 25000 nM

O[C@@H]1c2cccn2CC[C@@H]1[C@@H]1c2ccccc2-c2cncn21 [Example 136b, (7R,8S)-7-((R)-5H-imidazo[5,1-a]isoindol-5-yl)-5,6,7,8-tetrahydroindolizin-8-ol]
EC50 (TDO2; [1]): > 25000 nM

CC[C@H](O)[C@@H]1c2ccccc2-c2cncn21 [Example 137b, (S)-1-((S)-5H-imidazo[5,1-a]isoindol-5-yl)propan-1-ol]
EC50 (TDO2; [1]): 7900 nM

O[C@H](C1CCOCC1)[C@@H]1c2ccccc2-c2cncn21 [Example 138a, (R)—((S)-5H-imidazo[5,1-a]isoindol-5-yl)(tetrahydro-2H-pyran-4-yl)methanol]
EC50 (TDO2; [1]): 9700 nM

O[C@H](C1CCCCC1)[C@@H]1c2ccccc2-c2cncn21 [Example 148a, (R)-cyclohexyl((S)-5H-imidazo[5,1-a]isoindol-5-yl)methanol]
EC50 (TDO2; [1]): 14000 nM

O[C@@H](C1CCCCC1)[C@H]1c2ccccc2-c2cncn21 [Example 148b, (S)-cyclohexyl((R)-5H-imidazo[5,1-a]isoindol-5-yl)methanol]
EC50 (TDO2; [1]): 16000 nM

O[C@@H]1CC(CF)(CF)[C@@H]1[C@H]1c2ccccc2-c2cncn21 [Example 150a, (1R,2R)-3,3-bis(fluoromethyl)-2-((S)-5H-imidazo[5,1-a]isoindol-5-yl)cyclobutan-1-ol]
EC50 (TDO2; [1]): 12000 nM

O[C@H]1CC(CF)(CF)[C@H]1[C@@H]1c2ccccc2-c2cncn21 [Example 150c, (1S,2S)-3,3-bis(fluoromethyl)-2-((R)-5H-imidazo[5,1-a]isoindol-5-yl)cyclobutan-1-ol]
EC50 (TDO2; [1]): 110 nM

O[C@@H]1c2c(F)cnn2CC[C@@H]1[C@@H]1c2ccccc2-c2cncn21 [Example 151a, (4S,5R)-3-fluoro-5-((R)-5H-imidazo[5,1-a]isoindol-5-yl)-4,5,6,7-tetrahydropyrazolo[1,5-a]pyridin-4-ol]
EC50 (TDO2; [1]): 520 nM

CC(C)(C(N)=O)[C@@H](O)[C@H]1c2ccccc2-c2cncn21 [Example 155a, (R)-3-hydroxy-3-((R)-5H-imidazo[5,1-a]isoindol-5-yl)-2,2-dimethylpropanamide]
EC50 (TDO2; [1]): 330 nM

O[C@H]1c2[nH]ncc2CC[C@H]1[C@H]1c2ccccc2-c2cncn21 [Example 157d, (6S,7R)-6-((S)-5H-imidazo[5,1-a]isoindol-5-yl)-4,5,6,7-tetrahydro-1H-indazol-7-ol]
EC50 (TDO2; [1]): 23000 nM

OC1CC(C2c3ccccc3-c3cncn32)C1O (centres unmarked) [Example 158a, 3-(5H-imidazo[5,1-a]isoindol-5-yl)cyclobutane-1,2-diol]
EC50 (TDO2; [1]): 7900 nM

O[C@@H]1c2c(Cl)cnn2CC[C@@H]1[C@@H]1c2ccccc2-c2cncn21 [Example 160a, (4S,5R)-3-chloro-5-((R)-5H-imidazo[5,1-a]isoindol-5-yl)-4,5,6,7-tetrahydropyrazolo[1,5-a]pyridin-4-ol]
EC50 (TDO2; [1]): > 25000 nM

O[C@H]1c2c(Cl)cnn2CC[C@H]1[C@H]1c2ccccc2-c2cncn21 [Example 160b, (4R,5S)-3-chloro-5-((S)-5H-imidazo[5,1-a]isoindol-5-yl)-4,5,6,7-tetrahydropyrazolo[1,5-a]pyridin-4-ol]
EC50 (TDO2; [1]): 200 nM

Nc1cc2n(n1)CC[C@H]([C@H]1c3ccccc3-c3cncn31)[C@H]2O [Example 161a, (4R,5R)-2-amino-5-((S)-5H-imidazo[5,1-a]isoindol-5-yl)-4,5,6,7-tetrahydropyrazolo[1,5-a]pyridin-4-ol]
EC50 (TDO2; [1]): 18000 nM

Nc1cc2n(n1)CC[C@@H]([C@H]1c3ccccc3-c3cncn31)[C@@H]2O [Example 161b, (4S,5S)-2-amino-5-((S)-5H-imidazo[5,1-a]isoindol-5-yl)-4,5,6,7-tetrahydropyrazolo[1,5-a]pyridin-4-ol]
EC50 (TDO2; [1]): 700 nM

Nc1cc2n(n1)CCC(C1c3ccccc3-c3cncn31)C2O [Example 161d, (4S,5R)-2-amino-5-((S)-5H-imidazo[5,1-a]isoindol-5-yl)-4,5,6,7-tetrahydropyrazolo[1,5-a]pyridin-4-ol]
EC50 (TDO2; [1]): 12000 nM

Nc1cc2n(n1)CCC(C1c3ccccc3-c3cncn31)C2O [Example 161f, (4R,5S)-2-amino-5-((R)-5H-imidazo[5,1-a]isoindol-5-yl)-4,5,6,7-tetrahydropyrazolo[1,5-a]pyridin-4-ol]
EC50 (TDO2; [1]): > 25000 nM

NC(=O)C1([C@@H](O)[C@H]2c3ccccc3-c3cncn32)CC1 [Example 165a, 1-((R)-hydroxy((R)-5H-imidazo[5,1-a]isoindol-5-yl)methyl)cyclopropane-1-carboxamide]
EC50 (TDO2; [1]): 16000 nM

NC(=O)C1([C@@H](O)[C@@H]2c3ccccc3-c3cncn32)CC1 [Example 165b, 1-((R)-hydroxy ((S)-5H-imidazo[5,1-a]isoindol-5-yl)methyl)cyclopropane-1-carboxamide]
EC50 (TDO2; [1]): > 25000 nM

NC(=O)C1([C@H](O)[C@@H]2c3ccccc3-c3cncn32)CC1 [Example 165d, 1-((S)-hydroxy ((S)-5H-imidazo[5,1-a]isoindol-5-yl)methyl)cyclopropane-1-carboxamide]
EC50 (TDO2; [1]): > 25000 nM

CS(=O)(=O)N1CC2(CC(C3c4ccccc4-c4cncn43)C2O)C1 (centres unmarked) [Example 183, 6-(5H-imidazo[5,1-a]isoindol-5-yl)-2-(methylsulfonyl)-2-azaspiro[3.3]heptan-5-ol]
EC50 (TDO2; [1]): 220 nM
